Assay results taken from publication PMC5218480 (PLoS ONE, 2017).

Test system: MV-4-11 cells
Test: Gene expression microarray analysis (Affymetrix PrimeView) and GSEA
Format: cell-based, human
Set-up: RFU PODN (11730768_x_at) / Fold change /veh PODN (11730768_x_at) / RFU LINC00158 (11744669_a_at) / Fold change /veh LINC00158 (11744669_a_at) / RFU DUSP10 (11751237_a_at) / Fold change /veh DUSP10 (11751237_a_at) / RFU ID3 (11757404_x_at) / Fold change /veh ID3 (11757404_x_at) / RFU PLEKHG5 (11737974_s_at) / Fold change /veh PLEKHG5 (11737974_s_at) / RFU LRRC4B (11730491_at) / Fold change /veh LRRC4B (11730491_at) / RFU GIMAP4 (11747438_a_at) / Fold change /veh GIMAP4 (11747438_a_at) / RFU KRT8 (11758183_x_at) / Fold change /veh KRT8 (11758183_x_at) / RFU CNN1 (11734310_a_at) / Fold change /veh CNN1 (11734310_a_at) / RFU VPS37D (11726825_at) / Fold change /veh VPS37D (11726825_at) / RFU C10orf10 (11716522_x_at) / Fold change /veh C10orf10 (11716522_x_at) / RFU KIR2DL2 /// KIR2DL4 /// KIR2DL5A /// KIR2DL5B /// KIR2DS1 /// KIR2DS2 /// KIR2DS3 /// KIR2DS4 /// KIR3DL3 /// KIR3DL3 /// KIR3DS1 (11738374_at) / Fold change /veh KIR2DL2 /// KIR2DL4 /// KIR2DL5A /// KIR2DL5B /// KIR2DS1 /// KIR2DS2 /// KIR2DS3 /// KIR2DS4 /// KIR3DL3 /// KIR3DL3 /// KIR3DS1 (11738374_at) / RFU C1QL1 (11718748_at) / Fold change /veh C1QL1 (11718748_at) / RFU TMPRSS4 (11747572_a_at) / Fold change /veh TMPRSS4 (11747572_a_at) / RFU HAMP (11756126_x_at) / Fold change /veh HAMP (11756126_x_at) / RFU RNFT2 (11725882_a_at) / Fold change /veh RNFT2 (11725882_a_at) / RFU NR4A2 (11747474_a_at) / Fold change /veh NR4A2 (11747474_a_at) / RFU ABCC12 (11746883_a_at) / Fold change /veh ABCC12 (11746883_a_at) / RFU TMEM136 (11760407_x_at) / Fold change /veh TMEM136 (11760407_x_at) / RFU CLDN22 /// WWC2 (11732394_at) / Fold change /veh CLDN22 /// WWC2 (11732394_at) / RFU HLA-DPB1 (11760878_x_at) / Fold change /veh HLA-DPB1 (11760878_x_at) / RFU SPINT1 (11716480_a_at) / Fold change /veh SPINT1 (11716480_a_at) / RFU GAP43 (11754022_s_at) / Fold change /veh GAP43 (11754022_s_at) / RFU A4GNT (11735810_at) / Fold change /veh A4GNT (11735810_at) / RFU PRB3 (11715151_x_at) / Fold change /veh PRB3 (11715151_x_at) / RFU TUBB4B (11761932_at) / Fold change /veh TUBB4B (11761932_at) / RFU CAPN14 (11732068_a_at) / Fold change /veh CAPN14 (11732068_a_at) / RFU TMCC2 (11721928_a_at) / Fold change /veh TMCC2 (11721928_a_at) / RFU IRGQ (11745062_a_at) / Fold change /veh IRGQ (11745062_a_at) / RFU FAM174B (11720279_a_at) / Fold change /veh FAM174B (11720279_a_at) / RFU TMPRSS4 (11748680_a_at) / Fold change /veh TMPRSS4 (11748680_a_at) / RFU FAM212B (11763350_a_at) / Fold change /veh FAM212B (11763350_a_at) / RFU PLEKHG5 (11743358_a_at) / Fold change /veh PLEKHG5 (11743358_a_at) / RFU ZSCAN30 (11745921_a_at) / Fold change /veh ZSCAN30 (11745921_a_at) / RFU CMKLR1 (11741424_a_at) / Fold change /veh CMKLR1 (11741424_a_at) / RFU LOC101060620 /// MAPK8IP1 (11723275_at) / Fold change /veh LOC101060620 /// MAPK8IP1 (11723275_at) / RFU SPTSSB (11747773_x_at) / Fold change /veh SPTSSB (11747773_x_at) / RFU PRSS12 (11739890_at) / Fold change /veh PRSS12 (11739890_at) / RFU BIN1 (11741810_x_at) / Fold change /veh BIN1 (11741810_x_at) / RFU WNT11 (11732464_a_at) / Fold change /veh WNT11 (11732464_a_at) / RFU C10orf10 (11716521_a_at) / Fold change /veh C10orf10 (11716521_a_at) / RFU C5orf56 (11738089_at) / Fold change /veh C5orf56 (11738089_at) / RFU CYB561 (11721691_x_at) / Fold change /veh CYB561 (11721691_x_at) / RFU ANKRD19P (11752326_a_at) / Fold change /veh ANKRD19P (11752326_a_at) / RFU OR2T12 /// OR2T33 /// OR2T8 (11738714_s_at) / Fold change /veh OR2T12 /// OR2T33 /// OR2T8 (11738714_s_at) / RFU VCAN (11748164_a_at) / Fold change /veh VCAN (11748164_a_at) / RFU JSRP1 (11732532_at) / Fold change /veh JSRP1 (11732532_at) / RFU KRTAP10-11 (11738290_x_at) / Fold change /veh KRTAP10-11 (11738290_x_at) / RFU MYO3A (11730013_a_at) / Fold change /veh MYO3A (11730013_a_at) / RFU EBF3 (11725865_a_at) / Fold change /veh EBF3 (11725865_a_at) / RFU CAMK2N1 (11719241_x_at) / Fold change /veh CAMK2N1 (11719241_x_at) / RFU C5orf56 (11738088_a_at) / Fold change /veh C5orf56 (11738088_a_at) / RFU OLFML3 (11715873_a_at) / Fold change /veh OLFML3 (11715873_a_at) / RFU LOC100653217 /// NTM (11731650_a_at) / Fold change /veh LOC100653217 /// NTM (11731650_a_at) / RFU MAPK11 (11762145_a_at) / Fold change /veh MAPK11 (11762145_a_at) / RFU FIZ1 (11724087_x_at) / Fold change /veh FIZ1 (11724087_x_at) / RFU OASL (11726364_x_at) / Fold change /veh OASL (11726364_x_at) / RFU SOX15 (11748057_x_at) / Fold change /veh SOX15 (11748057_x_at) / RFU CD79A (11719716_a_at) / Fold change /veh CD79A (11719716_a_at) / RFU HIST1H1D (11736915_at) / Fold change /veh HIST1H1D (11736915_at) / RFU CASKIN2 (11723855_a_at) / Fold change /veh CASKIN2 (11723855_a_at) / RFU LOC730098 (11760151_x_at) / Fold change /veh LOC730098 (11760151_x_at) / RFU OR4N2 (11742367_at) / Fold change /veh OR4N2 (11742367_at) / RFU PRRT2 (11749266_a_at) / Fold change /veh PRRT2 (11749266_a_at) / RFU SNX32 (11753110_a_at) / Fold change /veh SNX32 (11753110_a_at) / RFU CDHR5 (11726645_a_at) / Fold change /veh CDHR5 (11726645_a_at) / RFU RCAN1 (11760418_a_at) / Fold change /veh RCAN1 (11760418_a_at) / RFU FAM167A (11723789_a_at) / Fold change /veh FAM167A (11723789_a_at) / RFU FAM26E (11764081_at) / Fold change /veh FAM26E (11764081_at) / RFU ISYNA1 (11749810_s_at) / Fold change /veh ISYNA1 (11749810_s_at) / RFU ACY1 (11761880_at) / Fold change /veh ACY1 (11761880_at) / RFU 11764098_at / Fold change /veh 11764098_at / RFU SAMD14 (11745864_x_at) / Fold change /veh SAMD14 (11745864_x_at) / RFU NPB (11741838_a_at) / Fold change /veh NPB (11741838_a_at) / RFU TMPRSS6 (11731388_a_at) / Fold change /veh TMPRSS6 (11731388_a_at) / RFU KRTAP10-2 (11738614_at) / Fold change /veh KRTAP10-2 (11738614_at) / RFU ARHGAP8 /// PRR5-ARHGAP8 (11727945_x_at) / Fold change /veh ARHGAP8 /// PRR5-ARHGAP8 (11727945_x_at) / RFU KRTAP5-7 /// NADSYN1 (11734609_at) / Fold change /veh KRTAP5-7 /// NADSYN1 (11734609_at) / RFU RASL12 (11751679_a_at) / Fold change /veh RASL12 (11751679_a_at) / RFU CDKN2B (11736163_a_at) / Fold change /veh CDKN2B (11736163_a_at) / RFU PRF1 (11729649_at) / Fold change /veh PRF1 (11729649_at) / RFU, ZNF638 /// ZNF638-IT1 / Fold change vs veh, ZNF638 /// ZNF638-IT1 / RFU, PANK3 / Fold change vs veh, PANK3 / RFU, SH3YL1 / Fold change vs veh, SH3YL1 / RFU, ZEB2 / Fold change vs veh, ZEB2 / RFU, NRIP1 / Fold change vs veh, NRIP1 / RFU, PTTG1IP / Fold change vs veh, PTTG1IP / RFU, CAPN2 / Fold change vs veh, CAPN2 / RFU, MED14 / Fold change vs veh, MED14 / RFU, SNORA58 / Fold change vs veh, SNORA58 / RFU, C1orf63 / Fold change vs veh, C1orf63 / RFU, LRRFIP1 / Fold change vs veh, LRRFIP1 / RFU, NDUFAF7 / Fold change vs veh, NDUFAF7 / RFU, SLC12A2 / Fold change vs veh, SLC12A2 / RFU, IBTK / Fold change vs veh, IBTK / RFU, ESF1 / Fold change vs veh, ESF1 / Fold change vs veh, TMEM50B / RFU, TAOK1 / Fold change vs veh, TAOK1 / RFU, ACBD3 / Fold change vs veh, ACBD3 / RFU, TMA16 / Fold change vs veh, TMA16 / RFU, RWDD3 / Fold change vs veh, RWDD3 / RFU, BCAT1 / Fold change vs veh, BCAT1 / RFU, EDEM3 / Fold change vs veh, EDEM3 / RFU, TMEM33 / Fold change vs veh, TMEM33 / RFU, WDR75 / Fold change vs veh, WDR75 / RFU, AHCTF1 / Fold change vs veh, AHCTF1 / RFU, TFRC / Fold change vs veh, TFRC / RFU, ZDHHC17 / Fold change vs veh, ZDHHC17 / RFU, NOM1 / Fold change vs veh, NOM1 / RFU, ARL8B / Fold change vs veh, ARL8B / RFU, ZBTB11 / Fold change vs veh, ZBTB11 / RFU, TAMM41 / Fold change vs veh, TAMM41 / RFU, KIAA1704 /// LOC100996395 / Fold change vs veh, KIAA1704 /// LOC100996395 / RFU, ING1 / Fold change vs veh, ING1 / RFU, TRMT61B / Fold change vs veh, TRMT61B / RFU, FUBP3 / Fold change vs veh, FUBP3 / RFU, TP53 / Fold change vs veh, TP53 / RFU, TNKS2 / Fold change vs veh, TNKS2 / RFU, ZFP14 / Fold change vs veh, ZFP14 / RFU, ACTR2 / Fold change vs veh, ACTR2 / RFU, PPP3R1 / Fold change vs veh, PPP3R1 / RFU, PIK3R1 / Fold change vs veh, PIK3R1 / RFU, HNRNPA1 / Fold change vs veh, HNRNPA1 / RFU, RNF170 / Fold change vs veh, RNF170 / RFU, ZNF28 / Fold change vs veh, ZNF28 / RFU, RNGTT / Fold change vs veh, RNGTT / RFU, OGT / Fold change vs veh, OGT / RFU, BRD1 / Fold change vs veh, BRD1 / RFU, MARS / Fold change vs veh, MARS / RFU, ZNF655 / Fold change vs veh, ZNF655 / RFU, FAHD1 / Fold change vs veh, FAHD1 / RFU, BDP1 / Fold change vs veh, BDP1 / RFU, LRRCC1 / Fold change vs veh, LRRCC1 / RFU, ARID1A / Fold change vs veh, ARID1A / RFU, ZNF146 / Fold change vs veh, ZNF146 / RFU, ZNF330 / Fold change vs veh, ZNF330 / RFU, GPN3 / Fold change vs veh, GPN3 / RFU, C9orf123 / Fold change vs veh, C9orf123 / RFU, N4BP2L2 / Fold change vs veh, N4BP2L2 / RFU, ARFIP1 / Fold change vs veh, ARFIP1 / RFU, FAM179B / Fold change vs veh, FAM179B / RFU, BCL10 / Fold change vs veh, BCL10 / RFU, UHRF1BP1L / Fold change vs veh, UHRF1BP1L / RFU, BET1 / Fold change vs veh, BET1 / RFU, CNOT2 / Fold change vs veh, CNOT2 / RFU, ZNF268 / Fold change vs veh, ZNF268 / Fold change vs veh, ZNF507 / RFU, DGCR2 / Fold change vs veh, DGCR2 / RFU, WDSUB1 / Fold change vs veh, WDSUB1 / Fold change vs veh, HSP90B1 /// MIR3652 / RFU, ADSS / Fold change vs veh, ADSS / RFU, GK / Fold change vs veh, GK / RFU, ZNF148 / Fold change vs veh, ZNF148 / RFU, TAF9 / Fold change vs veh, TAF9 / RFU, SLC1A5 / Fold change vs veh, SLC1A5 / RFU, SLMO2 / Fold change vs veh, SLMO2 / RFU, ABCC4 / Fold change vs veh, ABCC4 / RFU, LOC101060439 /// RAP1B / Fold change vs veh, LOC101060439 /// RAP1B / RFU, RFX7 / Fold change vs veh, RFX7 / RFU, GTPBP10 / Fold change vs veh, GTPBP10 / RFU, CNEP1R1 / Fold change vs veh, CNEP1R1 / RFU, BIVM-ERCC5 /// ERCC5 / Fold change vs veh, BIVM-ERCC5 /// ERCC5 / RFU, ILF3 / Fold change vs veh, ILF3 / RFU 11762660_at / Fold change /veh 11762660_at / RFU VCAN (11757783_s_at) / Fold change /veh VCAN (11757783_s_at) / RFU DDX43 (11728927_at) / Fold change /veh DDX43 (11728927_at) / RFU KRT8 (11758188_x_at) / Fold change /veh KRT8 (11758188_x_at) / RFU NKD1 (11759106_at) / Fold change /veh NKD1 (11759106_at) / RFU SRD5A1 (11742802_a_at) / Fold change /veh SRD5A1 (11742802_a_at) / RFU TPSAB1 /// TPSB2 (11721975_s_at) / Fold change /veh TPSAB1 /// TPSB2 (11721975_s_at) / RFU GSTM3 (11746129_a_at) / Fold change /veh GSTM3 (11746129_a_at) / RFU IL23R (11737362_x_at) / Fold change /veh IL23R (11737362_x_at) / RFU TMEM51 (11727254_a_at) / Fold change /veh TMEM51 (11727254_a_at) / RFU PIWIL2 (11732686_x_at) / Fold change /veh PIWIL2 (11732686_x_at) / RFU ORM1 (11744905_x_at) / Fold change /veh ORM1 (11744905_x_at) / RFU CCDC152 (11743942_at) / Fold change /veh CCDC152 (11743942_at) / RFU ECM1 (11717891_a_at) / Fold change /veh ECM1 (11717891_a_at) / RFU IL23R (11748794_a_at) / Fold change /veh IL23R (11748794_a_at) / RFU TNFAIP8L3 (11732012_x_at) / Fold change /veh TNFAIP8L3 (11732012_x_at) / RFU MBOAT4 (11741988_at) / Fold change /veh MBOAT4 (11741988_at) / RFU 11764193_at / Fold change /veh 11764193_at / RFU TMEM53 (11763286_at) / Fold change /veh TMEM53 (11763286_at) / RFU MAGEB2 (11727129_at) / Fold change /veh MAGEB2 (11727129_at) / RFU TMEM200A (11744735_a_at) / Fold change /veh TMEM200A (11744735_a_at) / RFU CCDC152 (11751479_a_at) / Fold change /veh CCDC152 (11751479_a_at) / RFU FAM211A (11726209_a_at) / Fold change /veh FAM211A (11726209_a_at) / RFU RGS16 (11746705_a_at) / Fold change /veh RGS16 (11746705_a_at) / RFU VCAN (11755009_s_at) / Fold change /veh VCAN (11755009_s_at) / RFU RHOB (11743442_s_at) / Fold change /veh RHOB (11743442_s_at) / RFU RGS16 (11720943_a_at) / Fold change /veh RGS16 (11720943_a_at) / RFU RGS16 (11720944_at) / Fold change /veh RGS16 (11720944_at) / RFU, VPS4B / Fold change vs veh, VPS4B / RFU, CREB1 / Fold change vs veh, CREB1 / RFU, DNAJC13 / Fold change vs veh, DNAJC13 / RFU, GNAQ / Fold change vs veh, GNAQ / RFU, CDK5R1 / Fold change vs veh, CDK5R1 / RFU, ZRANB3 / Fold change vs veh, ZRANB3 / RFU, CUL4A / Fold change vs veh, CUL4A / RFU, CCNY / Fold change vs veh, CCNY / RFU, UFL1 / Fold change vs veh, UFL1 / RFU, COG3 / Fold change vs veh, COG3 / RFU, DIAPH2 / Fold change vs veh, DIAPH2 / RFU, SKA2 / Fold change vs veh, SKA2 / RFU, AFF3 / Fold change vs veh, AFF3 / RFU, LMF1 / Fold change vs veh, LMF1 / RFU, IPO11 / Fold change vs veh, IPO11 / RFU, DFFB / Fold change vs veh, DFFB / RFU, FOXP1 / Fold change vs veh, FOXP1 / RFU, CARD8 / Fold change vs veh, CARD8 / RFU, STRN3 / Fold change vs veh, STRN3 / RFU, ADK / Fold change vs veh, ADK / RFU, RASSF2 / Fold change vs veh, RASSF2 / RFU, WIPF1 / Fold change vs veh, WIPF1 / RFU, LARP1B / Fold change vs veh, LARP1B / RFU, RASA1 / Fold change vs veh, RASA1 / RFU, RB1 / Fold change vs veh, RB1 / RFU, PPFIA1 / Fold change vs veh, PPFIA1 / RFU, MAT2A / Fold change vs veh, MAT2A / RFU, CCT5 / Fold change vs veh, CCT5 / RFU, WDR92 / Fold change vs veh, WDR92 / RFU, CUX1 / Fold change vs veh, CUX1 / RFU, TTC7A / Fold change vs veh, TTC7A / RFU, TMEM135 / Fold change vs veh, TMEM135 / RFU, DEPTOR / Fold change vs veh, DEPTOR / RFU, CPM / Fold change vs veh, CPM / RFU, DNAJB6 / Fold change vs veh, DNAJB6 / RFU, CACNA2D3 / Fold change vs veh, CACNA2D3 / RFU, DTX4 / Fold change vs veh, DTX4 / RFU, TFCP2 / Fold change vs veh, TFCP2 / RFU, GMCL1 /// GMCL1P1 / Fold change vs veh, GMCL1 /// GMCL1P1 / RFU, AEBP2 / Fold change vs veh, AEBP2 / RFU, SNHG1 /// SNORD22 /// SNORD25 /// SNORD26 /// SNORD27 /// SNORD28 /// SNORD29 /// SNORD31 / Fold change vs veh, SNHG1 /// SNORD22 /// SNORD25 /// SNORD26 /// SNORD27 /// SNORD28 /// SNORD29 /// SNORD31 / Fold change (Aza/veh), C12orf56 (ProbeSet 11735607_a_at) / Fold change (ACY-1035/veh), C12orf56 (ProbeSet 11735607_a_at) / Fold change (Aza/veh), FGFR1OP (ProbeSet 11751329_s_at) / Fold change (ACY-1035/veh), FGFR1OP (ProbeSet 11751329_s_at) / Fold change (Aza/veh), VPS36 (ProbeSet 11739960_a_at) / Fold change (ACY-1035/veh), VPS36 (ProbeSet 11739960_a_at) / RFU SYPL1 (11715823_x_at) / Fold change /veh SYPL1 (11715823_x_at) / RFU IGFBP7 (11715501_s_at) / Fold change /veh IGFBP7 (11715501_s_at) / RFU REEP3 (11722064_at) / Fold change /veh REEP3 (11722064_at) / RFU IGLL1 (11728026_x_at) / Fold change /veh IGLL1 (11728026_x_at): dose or concentration left out as unconfirmed
Details: ProbeSet 11717876_a_at; LIST D

Question: With `Nc1ncn([C@@H]2O[C@H](CO)[C@@H](O)[C@H]2O)c(=O)n1` [azacitidine] as the compound, how does the “Fold change vs veh, PPFIA1” value read?
Answer: 0.68
